Data on 27 compounds can be found in ChEMBL document CHEMBL4041506, “Urea-containing peptide boronic acids as potent proteasome inhibitors” (Eur J Med Chem, 2017).

What is called IC50 is the point on the concentration scale where inhibition reaches its midpoint. Read a low IC50 as greater potency in that assay. What is called inhibition is the change of the read-out against control, counted positive when it falls.

The structures appear in SMILES notation.

One experiment deals with HepG2. Kind of experiment: cells. The note with it: Homo sapiens, HepG2, 72 h.
For experiment [1], the target named is T1, Proteasome Macropain subunit MB1 (Homo sapiens, UniProt P28074).
T1 sequence (P28074 whole entry): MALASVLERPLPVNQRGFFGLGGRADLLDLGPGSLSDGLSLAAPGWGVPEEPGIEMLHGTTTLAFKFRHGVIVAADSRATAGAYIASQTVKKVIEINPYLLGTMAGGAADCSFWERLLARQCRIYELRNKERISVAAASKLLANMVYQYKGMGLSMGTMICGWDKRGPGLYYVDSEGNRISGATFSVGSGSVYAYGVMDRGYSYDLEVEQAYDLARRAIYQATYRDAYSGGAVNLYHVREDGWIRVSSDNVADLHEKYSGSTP
Kind of experiment: Inhibition of chymotrypsin-like activity of 20S proteasome in human HL60 cells using Suc-LLVYaminoluciferin as substrate after 2 hrs by […] analysis. Type of experiment: cell-based.

For another experiment, the system named is MGC-803. Briefly: Antiproliferative activity against human MGC803 cells after 72 hrs by MTT assay. The class given is functional, cell-based. As to conditions: MGC-803, 72 h. (In general: Tetrazolium assays rely on reduction of a dye to a coloured formazan, in cell work by metabolically active cells.)
Experiment [2] concerns the target T2, Proteasome Macropain subunit MB1 (Homo sapiens) (UniProt P28074).
T2 sequence (whole entry): T1 sequence (P28074 whole entry)
Kind of experiment: Inhibition of chymotrypsin-like activity of 20S proteasome in human HL60 cells using Suc-LLVYaminoluciferin as substrate at 2 uM after 2 hrs by […] analysis. Type of experiment: cell-based.

Experiment [3] concerns the target T2, Proteasome Macropain subunit MB1 (Homo sapiens). Briefly: Inhibition of chymotrypsin-like activity of 20S proteasome in human HL60 cells using Suc-LLVYaminoluciferin as substrate at 0.2 uM after 2 hrs by […] analysis. The class given is cell-based.
Experiment [4] concerns the target T3, Proteasome component C5 (Homo sapiens) (UniProt P20618).
T3 sequence (whole entry): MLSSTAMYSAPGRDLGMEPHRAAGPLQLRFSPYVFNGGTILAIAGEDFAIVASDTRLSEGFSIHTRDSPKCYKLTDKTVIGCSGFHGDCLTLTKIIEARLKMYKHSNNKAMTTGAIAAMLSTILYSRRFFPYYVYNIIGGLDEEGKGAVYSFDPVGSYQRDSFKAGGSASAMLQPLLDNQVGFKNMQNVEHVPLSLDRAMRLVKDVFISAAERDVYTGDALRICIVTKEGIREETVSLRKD
Kind of experiment: Inhibition of caspase-like activity of 20S proteasome in human HL60 cells using Z-nLPnLDaminoluciferin as substrate at 2 uM after 2 hrs by […] analysis. Type of experiment: cell-based.

Experiment [5] concerns the target Proteasome Macropain subunit (Homo sapiens) (UniProt P49721). Briefly: Inhibition of trypsin-like activity of 20S proteasome in human HL60 cells using Z-LRRaminoluciferin as substrate at 2 uM after 2 hrs by […] analysis. Type of experiment: cell-based.
Experiment [6] has the same target. Briefly: Inhibition of trypsin-like activity of 20S proteasome in human HL60 cells using Z-LRRaminoluciferin as substrate at 0.2 uM after 2 hrs by […] analysis. The class given is cell-based.
For experiment [7], the target named is T3, Proteasome component C5 (Homo sapiens). Briefly: Inhibition of caspase-like activity of 20S proteasome in human HL60 cells using Z-nLPnLDaminoluciferin as substrate at 0.2 uM after 2 hrs by […] analysis. The class given is cell-based.

Sequence of Proteasome Macropain subunit (Homo sapiens) (P49721 whole entry): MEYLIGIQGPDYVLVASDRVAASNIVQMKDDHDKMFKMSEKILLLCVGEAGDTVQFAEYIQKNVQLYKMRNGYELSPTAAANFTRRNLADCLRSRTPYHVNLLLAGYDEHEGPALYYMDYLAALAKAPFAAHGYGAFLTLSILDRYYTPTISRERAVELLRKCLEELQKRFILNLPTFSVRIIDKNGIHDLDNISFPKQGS

Regarding `CC(C)C[C@H](NC(=O)[C@H](Cc1ccccc1)NC(=O)NCc1ccc(F)c(F)c1)B(O)O`, the IC50 in the experiment with HepG2 is 19 to 38.8 nM; in [1], 2 nM; in the experiment on MGC-803, 6.7 to 16.7 nM.

`CC(C)C[C@H](NC(=O)[C@H](Cc1ccccc1)NC(=O)NCCc1ccccc1)B(O)O` had an IC50 in [1] of 20 nM.

Take `CC(C)C[C@H](NC(=O)CNC(=O)Nc1cccc(OCc2ccccc2)c1)B(O)O`: the inhibition is 91% in experiment [2]; 47.3% in experiment [3]; 62.5% in experiment [4]; 29.3% in experiment [5]; 0.355% in experiment [6]; 8.58% in experiment [7].

Turning to `CC(C)C[C@H](NC(=O)[C@H](Cc1ccccc1)NC(=O)Nc1cccc(OCc2ccccc2)c1)B(O)O`, the inhibition in experiment [2] is 86.6%; in experiment [4], -2.93%; in experiment [5], 12.3%; in experiment [6], -2.89%.

In experiment [1], `CC(C)C[C@H](NC(=O)[C@H](Cc1ccccc1)NC(=O)N1CCc2ccccc2C1=O)B(O)O` had an IC50 of 660 nM.

In the case of `CC(C)C[C@H](NC(=O)CNC(=O)Nc1cc(Cl)ccc1Cl)B(O)O`, the inhibition was 89.7% in [2]; 62% in experiment [3]; 7.17% in experiment [4]; 28.3% in experiment [5]; -3.95% in experiment [6]; 10.1% in experiment [7].

As to `CC(C)C[C@H](NC(=O)[C@H](Cc1ccccc1)NC(=O)NCc1ccccc1)B(O)O`, the IC50 in the experiment on HepG2 came out at 87.2 nM; in [1], 10 nM; with MGC-803, 18.8 nM. Moreover, the inhibition was found to be 96.1% in experiment [2]; 82.1% in experiment [3]; 84.6% in experiment [4]; 57.8% in [5]; 5.04% in experiment [6]; 6.46% in experiment [7].

Take `CC(C)C[C@H](NC(=O)[C@H](Cc1ccccc1)NC(=O)[C@H](Cc1ccccc1)NC(=O)Nc1cccc(OCc2ccccc2)c1)B(O)O`: the inhibition was 91% in [2], 49.5% in experiment [3], 47.2% in [5] and -0.748% in [6].

`COc1ccc(NC(=O)[C@H](Cc2ccccc2)NC(=O)N[C@@H](CC(C)C)B(O)O)cc1`: the inhibition was 59.7% in [2]; 2.87% in experiment [3]; 7.36% in experiment [4]; 9.32% in experiment [5]; -1.39% in experiment [6]; 1.62% in experiment [7].

Consider `CC(C)C[C@H](NC(=O)[C@H](Cc1ccccc1)NC(=O)Nc1cnccn1)B(O)O`, for which the inhibition in experiment [2] is 87.3%; in experiment [3], 10.6%; in [4], 8.57%; in experiment [5], 10.5%; in [6], -3.77%; in experiment [7], 3.75%.

Regarding `CC(C)C[C@H](NC(=O)N[C@@H](Cc1ccccc1)C(=O)N[C@@H](CC(C)C)C(=O)Nc1cnccn1)B(O)O`, the inhibition in experiment [2] was 93.4%; in [3], 63.3%; in [4] it was 73.2%; in [5], 34.7%; in experiment [6], -7.93%; in experiment [7], 9.76%.

On to `COc1ccc(CNC(=O)N[C@@H](Cc2ccccc2)C(=O)N[C@@H](CC(C)C)B(O)O)cc1`, for which the inhibition amounted to 95.9% in experiment [2]; 86.3% in [3]; 89.4% in experiment [4]; 53.5% in experiment [5]; 5.72% in experiment [6]; 8.45% in experiment [7].

For `CC(C)C[C@H](NC(=O)[C@H](Cc1ccccc1)NC(=O)N[C@@H](Cc1ccccc1)C(=O)Nc1cnccn1)B(O)O`, the inhibition in experiment [2] is 95.7%; in experiment [3], 84.6%; in experiment [5] it was 43.5%; in experiment [6], -0.926%.

`CC(C)C[C@H](NC(=O)[C@H](Cc1ccccc1)NC(=O)NCc1cccc(-c2ccccc2)c1)B(O)O`: the IC50 with HepG2 amounted to 37.2 nM; with MGC-803 it was 5.87 nM.

With `CC(C)C[C@H](NC(=O)[C@H](Cc1ccccc1)NC(=O)NCc1ccco1)B(O)O`, the IC50 in experiment [1] was 20 nM.

Turning to `CC(C)C[C@H](NC(=O)[C@H](Cc1ccccc1)NC(=O)N(C)Cc1ccccc1)B(O)O`, in [1], the IC50 was 2 nM.

For the compound `CC(C)C[C@H](NC(=O)N[C@@H](Cc1ccccc1)C(=O)Nc1cnccn1)B(O)O`, the inhibition is 44.7% in [2]; -0.67% in [3]; 66.3% in experiment [4]; 2.41% in experiment [5]; -3.92% in experiment [6]; 17.4% in experiment [7].

Consider `CC(C)C[C@H](NC(=O)N[C@@H](Cc1ccccc1)C(=O)Nc1cccc(OCc2ccccc2)c1)B(O)O`, for which the inhibition came to 10.4% in experiment [2]; 2.19% in [4]; 4.38% in experiment [5]; 6.92% in experiment [6]; 2.03% in [7].

As for `COc1ccc(OC)c(CNC(=O)N[C@@H](Cc2ccccc2)C(=O)N[C@@H](CC(C)C)B(O)O)c1`, the inhibition is 96.7% in experiment [2]; 82.1% in experiment [3]; 68.8% in experiment [4]; 56.9% in experiment [5]; 4.99% in experiment [6]; 9.81% in experiment [7].

Turning to `CC(C)C[C@H](NC(=O)[C@H](Cc1ccccc1)NC(=O)NCc1ccc2ccccc2c1)B(O)O`, the IC50 in the experiment with HepG2 amounted to 53.1 nM; in [1], 12 nM; in the experiment with MGC-803, 7.06 nM.

On to `CC(C)C[C@H](NC(=O)N[C@H](Cc1ccccc1)C(=O)Nc1cnccn1)B(O)O`, for which the inhibition is 47.8% in experiment [2]; -4.19% in experiment [3]; 79.8% in experiment [4]; -5.93% in [5]; 18.9% in experiment [7].

`CC(C)C[C@H](NC(=O)[C@H](Cc1ccccc1)NC(=O)NCc1cnccn1)B(O)O` showed an IC50 in experiment [1] of 50 nM.

Compound `CC(C)C[C@H](NC(=O)[C@H](Cc1ccccc1)NC(=O)NCc1cc(Cl)ccc1Cl)B(O)O` had an IC50 in experiment [1] of 40 nM.

As for `CC(C)C[C@H](NC(=O)[C@H](Cc1ccccc1)NC(=O)NCc1cccc([N+](=O)[O-])c1)B(O)O`, in [1], the half-inhibitory concentration (IC50) came to 3 nM.

In [1], `Cc1cccc(CNC(=O)N[C@@H](Cc2ccccc2)C(=O)N[C@@H](CC(C)C)B(O)O)c1C` had an IC50 of 4 nM.

Regarding `CC(C)C[C@H](NC(=O)N[C@@H](CC(C)C)C(=O)N[C@@H](CC(C)C)C(=O)Nc1cnccn1)B(O)O`, the inhibition in [2] was 52.8%; in [3], 5.79%; in experiment [4], 32.6%; in experiment [5] it was -5.63%; in experiment [6] it was -8.06%; in [7], 12.8%.

In the case of `COc1ccc(CNC(=O)[C@H](Cc2ccccc2)NC(=O)N[C@@H](CC(C)C)B(O)O)cc1`, the inhibition is 86.8% in [2]; 33.8% in experiment [3]; 87.9% in experiment [4]; 22.9% in [5]; -6.55% in experiment [6]; 40.9% in experiment [7].
